Measurements reported in patent US10294234B2, “HIV inhibitor compounds” (priority 2017, dated 2019).
Where two headings read alike, the source gives them in different places.

Legend:
[1] = How it was run: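 Depletion measured by LC/MS/MS at 2, 12, 25, 45 and 65 minutes after 1 uM compound was added to liver microsomes (0.5 mg/mL; dog, rat, human) with NADPH-regenerating cofactor, in duplicate. In vitro t1/2 converted to Clint.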
[2] = tested on: HIV-1 (IIIB) in MT-4 cells; assay: MT-4 HIV assay; type: cell-based; conditions: Human immunodeficiency virus 1, MT4, 120 h
How it was run: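 Antiviral activity was read by Cell Titer Glo after a 5-day, 37 °C culture of MT-4 cells pre-infected with a 1:250 dilution of HIV-1 (IIIB). Compounds were tested as threefold dilution series in complete RPMI. Controls were no drug, mock infection and 5 uM AZT.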

[3] = HIV-1 (IIIB), MT-4 cells, 5 days, Cell Titer Glo, read-out: EC50
[4] = human liver microsomes 0.5 mg/mL, 1 uM compound, NADPH
[5] = rat liver microsomes 0.5 mg/mL, 1 uM compound, NADPH

Human Pred Cl. [1, 4]	Rat. Pred. Cl. [1, 5]	Compound	Human Pred Cl. ([1]; human, microsomes)	Rat. Pred. Cl. ([1]; rat, microsomes)	EC50 [2, 3]	Dog. Pred. Cl. ([1]; dog, microsomes)	EC50 [2]
		COC(=O)N[C@H](C(=O)N[C@@H](Cc1ccc(-c2ccc(N3CC4CCC(C3)N4C3COC3)nc2)cc1)[C@@H](O)CN(Cc1c(F)cc(-c2ccn(C3CC3)n2)cc1F)NC(=O)[C@@H](NC(=O)OC)C(C)(C)C(F)(F)F)C(C)(C)C(F)(F)F [Example 204, Methyl ((5S,8S,9S,14S)-11-(4-(1-cyclopropyl-1H-pyrazol-3-yl)-2,6-difluorobenzyl)-16,16,16-trifluoro-9-hydroxy-15,15-dimethyl-8-(4-(6-(8-(oxetan-3-yl)-3,8-diazabicyclo[3.2.1]octan-3-yl)pyridin-3-yl)benzyl)-3,6,13-trioxo-5-(1,1,1-trifluoro-2-methylpropan-2-yl)-2-oxa-4,7,11,12-tetraazahexadecan-14-yl)carbamate]	0.19 L/H/kg	0.48 L/H/kg	3.18 nM		
		CC(C)([C@H](NC(=O)OC1COC1)C(=O)N[C@@H](Cc1ccc(C#Cc2cnc(N3CC4CCC(C3)N4C3COC3)nc2)cc1)[C@@H](O)CN(Cc1c(F)cc(-c2ccn(C(F)F)n2)cc1F)NC(=O)[C@@H](NC(=O)OC1COC1)C(C)(C)C(F)(F)F)C(F)(F)F [Example 220, Oxetan-3-yl ((2S)-1-(2-(4-(1-(difluoromethyl)-1H-pyrazol-3-yl)-2,6-difluorobenzyl)-2-((2S,3S)-2-hydroxy-4-(4-((2-(8-(oxetan-3-yl)-3,8-diazabicyclo [3.2.1]octan-3-yl)pyrimidin-5-yl)ethynyl)phenyl)-3-((S)-4,4,4-trifluoro-3,3-dimethyl-2-(((oxetan-3-yloxy)carbonyl)amino)butanamido)butyl)hydrazinyl)-4,4,4-trifluoro-3,3-dimethyl-1-oxobutan-2-yl)carbamate]	<0.11 L/H/kg	0.34 L/H/kg	7.66 nM	0.46 L/H/kg	
		COC(=O)N[C@H](C(=O)N[C@@H](Cc1ccc(C#Cc2ccc(N3CC4CC(C3)N4C3COC3)nc2)cc1)[C@@H](O)CN(Cc1c(F)cc(-c2cnn(C(F)F)c2)cc1F)NC(=O)[C@@H](NC(=O)OC)C(C)(C)C(F)(F)F)C(C)(C)C(F)(F)F [Example 60, Methyl ((5S,8S,9S,14S)-11-(4-(1-(difluoromethyl)-1H-pyrazol-4-yl)-2,6-difluorobenzyl)-16,16,16-trifluoro-9-hydroxy-15,15-dimethyl-8-(4-((6-(6-(oxetan-3-yl)-3,6-diazabicyclo[3.1.1]heptan-3-yl)pyridin-3-yl)ethynyl)benzyl)-3,6,13-trioxo-5-(1,1,1-trifluoro-2-methylpropan-2-yl)-2-oxa-4,7,11,12-tetraazahexadecan-14-yl)carbamate]	0.12 L/H/kg	0.65 L/H/kg	3.42 nM		
<0.11 L/H/kg		COC(=O)N[C@H](C(=O)N[C@@H](Cc1ccc(C#Cc2ccc(N3CCN([C@@H]4CCOC4)CC3)nc2)cc1)[C@@H](O)CN(Cc1c(F)cc(-c2ccn(C(F)F)n2)cc1F)NC(=O)[C@@H](NC(=O)OC)C(C)(C)C(F)(F)F)C(C)(C)C(F)(F)F [Example 146, Methyl ((5S,8S,9S,14S)-11-(4-(1-(difluoromethyl)-1H-pyrazol-3-yl)-2,6-difluorobenzyl)-16,16,16-trifluoro-9-hydroxy-15,15-dimethyl-3,6,13-trioxo-8-(4-((6-(4-((R)-tetrahydrofuran-3-yl)piperazin-1-yl)pyridin-3-yl)ethynyl)benzyl)-5-(1,1,1-trifluoro-2-methylpropan-2-yl)-2-oxa-4,7,11,12-tetraazahexadecan-14-yl)carbamate]			8.17 nM		
0.18 L/H/kg	0.69 L/H/kg	COC(=O)N[C@H](C(=O)N[C@@H](Cc1ccc(C#Cc2ccc(N3C[C@@H]4C[C@H]3CN4C3COC3)nc2)cc1)[C@@H](O)CN(Cc1c(F)cc(-c2ccn(C(F)F)n2)cc1F)NC(=O)[C@@H](NC(=O)OC)C(C)(C)C(F)(F)F)C(C)(C)C(F)(F)F [Example 174, Methyl ((5S,8S,9S,14S)-11-(4-(1-(difluoromethyl)-1H-pyrazol-3-yl)-2,6-difluorobenzyl)-16,16,16-trifluoro-9-hydroxy-15,15-dimethyl-8-(4-((6-((1S,4S)-5-(oxetan-3-yl)-2,5-diazabicyclo[2.2.1]heptan-2-yl)pyridin-3-yl)ethynyl)benzyl)-3,6,13-trioxo-5-(1,1,1-trifluoro-2-methylpropan-2-yl)-2-oxa-4,7,11,12-tetraazahexadecan-14-yl)carbamate]			2.33 nM		
		COC(=O)N[C@H](C(=O)NN(Cc1c(F)cc(-c2ccn(CC(F)F)n2)cc1F)C[C@H](O)[C@H](Cc1ccc(C#Cc2cnc(N3CC4CCC(C3)N4C3COC3)nc2)cc1)NC(=O)[C@@H](NC(=O)OC)C(C)(C)C(F)(F)F)C(C)(C)C [Example 7, methyl ((5S,8S,9S,14S)-11-(4-(1-(2,2-difluoroethyl)-1H-pyrazol-3-yl)-2,6-difluorobenzyl)-9-hydroxy-15,15-dimethyl-8-(4-((2-(8-(oxetan-3-yl)-3,8-diazabicyclo[3.2.1]octan-3-yl)pyrimidin-5-yl)ethynyl)benzyl)-3,6,13-trioxo-5-(1,1,1-trifluoro-2-methylpropan-2-yl)-2-oxa-4,7,11,12-tetraazahexadecan-14-yl)carbamate]	<0.11 L/H/kg	0.21 L/H/kg	3.61 nM		
		COC(=O)N[C@H](C(=O)NN(Cc1c(F)cc(-c2cnccn2)cc1F)C[C@H](O)[C@H](Cc1ccc(C#Cc2ccc(N3CC4CCC(C3)N4C3COC3)nc2)cc1)NC(=O)[C@@H](NC(=O)OC)C(C)(C)C(F)(F)F)C(C)(C)C [Example 107, Methyl ((5S,8S,9S,14S)-11-(2,6-difluoro-4-(pyrazin-2-yl)benzyl)-9-hydroxy-15,15-dimethyl-8-(4-((6-(8-(oxetan-3-yl)-3,8-diazabicyclo[3.2.1]octan-3-yl)pyridin-3-yl)ethynyl)benzyl)-3,6,13-trioxo-5-(1,1,1-trifluoro-2-methylpropan-2-yl)-2-oxa-4,7,11,12-tetraazahexadecan-14-yl)carbamate]	1.1 L/H/kg		2.23 nM		
		COC(=O)N[C@H](C(=O)N[C@@H](Cc1ccc(C#Cc2ccc(N3C4CC3CN(C3COC3)C4)nc2)cc1)[C@@H](O)CN(Cc1c(F)cc(-c2cnn(C(F)F)c2)cc1F)NC(=O)[C@@H](NC(=O)OC)C(C)(C)C(F)(F)F)C(C)(C)C(F)(F)F [Example 59, Methyl ((5S,8S,9S,14S)-11-(4-(1-(difluoromethyl)-1H-pyrazol-4-yl)-2,6-difluorobenzyl)-16,16,16-trifluoro-9-hydroxy-15,15-dimethyl-8-(4-((6-(3-(oxetan-3-yl)-3,6-diazabicyclo[3.1.1]heptan-6-yl)pyridin-3-yl)ethynyl)benzyl)-3,6,13-trioxo-5-(1,1,1-trifluoro-2-methylpropan-2-yl)-2-oxa-4,7,11,12-tetraazahexadecan-14-yl)carbamate]	0.6 L/H/kg	0.83 L/H/kg	3.38 nM		
		CCN1C2CCC1CN(c1ccc(C#Cc3ccc(C[C@H](NC(=O)[C@@H](NC(=O)OC)C(C)(C)C(F)(F)F)[C@@H](O)CN(Cc4c(F)cc(-c5cnn(C(F)F)c5)cc4F)NC(=O)[C@@H](NC(=O)OC)C(C)(C)C(F)(F)F)cc3)cn1)C2 [Example 167, Methyl ((5S,8S,9S,14S)-11-(4-(1-(difluoromethyl)-1H-pyrazol-4-yl)-2,6-difluorobenzyl)-8-(4-((6-(8-ethyl-3,8-diazabicyclo[3.2.1]octan-3-yl)pyridin-3-yl)ethynyl)benzyl)-16,16,16-trifluoro-9-hydroxy-15,15-dimethyl-3,6,13-trioxo-5-(1,1,1-trifluoro-2-methylpropan-2-yl)-2-oxa-4,7,11,12-tetraazahexadecan-14-yl)carbamate]	<0.11 L/H/kg		4.97 nM		
		COC(=O)N[C@H](C(=O)N[C@@H](Cc1ccc(C#Cc2cnc(N3CC4CCC(C3)N4C3COC3)nc2)cc1)[C@@H](O)CN(Cc1c(F)cc(-c2ccn(C(F)F)n2)cc1F)NC(=O)[C@@H](NC(=O)OC)C(C)(C)C)C(C)(C)C [Example 121, Methyl ((5S,8S,9S,14S)-5-(tert-butyl)-11-(4-(1-(difluoromethyl)-1H-pyrazol-3-yl)-2,6-difluorobenzyl)-9-hydroxy-15,15-dimethyl-8-(4-((2-(8-(oxetan-3-yl)-3,8-diazabicyclo[3.2.1]octan-3-yl)pyrimidin-5-yl)ethynyl)benzyl)-3,6,13-trioxo-2-oxa-4,7,11,12-tetraazahexadecan-14-yl)carbamate]	<0.11 L/H/kg	<0.18 L/H/kg	3.31 nM		
		COC(=O)N[C@H](C(=O)N[C@@H](Cc1ccc(-c2ccc(N3CC4CCC(C3)N4C3COC3)nc2)cc1)[C@@H](O)CN(Cc1c(F)cc(-c2ccn(C)n2)cc1F)NC(=O)[C@@H](NC(=O)OC)C(C)(C)C)C(C)(C)C [Example 206, Methyl ((5S,8S,9S,14S)-5-(tert-butyl)-11-(2,6-difluoro-4-(1-methyl-1H-pyrazol-3-yl)benzyl)-9-hydroxy-15,15-dimethyl-8-(4-(6-(8-(oxetan-3-yl)-3,8-diazabicyclo [3.2.1]octan-3-yl)pyridin-3-yl)benzyl)-3,6,13-trioxo-2-oxa-4,7,11,12-tetraazahexadecan-14-yl)carbamate]	0.41 L/H/kg	1.03 L/H/kg	3.7 nM		
0.38 L/H/kg	1.39 L/H/kg	COC(=O)N[C@H](C(=O)NN(Cc1c(F)cc(-c2ncccn2)cc1F)C[C@H](O)[C@H](Cc1ccc(C#Cc2ccc(N3C[C@H]4C[C@@H]3CN4C3COC3)nc2)cc1)NC(=O)[C@@H](NC(=O)OC)C(C)(C)C(F)(F)F)C(C)(C)C [Example 95]					2.44 nM
